US20210255193A1, “LYSINE REACTIVE PROBES AND USES THEREOF” (The Scripps Research Institute, priority 2017, published 2021)
Values belong to the compound of their own block, whether it stands above or below them.

Key:
[1] = target: T1, TPD52L2 Tumor protein D54 (Homo sapiens, UniProt O43399); experiment: competitive isoTOP-ABPP; format: binding; set-up: key to isoTOP-ABPP reactivity ratio at lysine O43399_K90: R = MS1 peak area ratio, DMSO (heavy) / compound-treated (light); conditions: for isoTOP-ABPP ratio (R) at liganded lysine O43399_K90: sol, 231
T1 construct: isoTOP-ABPP experiments performed in cell lysates (in vitro); endogenous in cells; host or cells: MDA-MB-231 soluble lysate
Experimental: (§1) In vitro covalent fragment treatment for isoTOP-ABPP. All compounds were made up as solutions in DMSO (100×) and were used at a final concentration of 50 μM for activated esters and 100 μM for guanidinylating agents. For each profiling sample, 0.5 ml of lysate was treated with 5 μl of the 100× compound stock solution or 5 μl of DMSO. Samples were treated with activated esters for
(§2) STP-alkyne labeling and click chemistry. For concentration-dependent reactivity measurements by isoTOP-ABPP, 0.5 ml proteome aliquots were treated at ambient temperature with 1 mM STP-alkyne 1 (5 μl of 100 mM stock in DMSO) and 0.1 mM STP alkyne 1 (5 μl of 10 mM stock in DMSO), respectively. For competitive isoTOP-ABPP, after in vitro fragment treatment (detailed above), the samples were labeled for 1 h at ambient temperature with 0.1 mM STP-alkyne 1 (5 μl of 10 mM stock in DMSO). Samples were conjugated by copper-mediated azide-alkyne cycloaddition (CuAAC) to either the light (1 mM STP-alkyne or fragment treated) or heavy (0.1 mM STP-alkyne or DMSO treated) TEV tags (10 μl of 5 mM stocks in DMSO, final concentration=100 μM) using tris(2-carboxyethyl)phosphine hydrochloride
(§3) R value calculation and processing. The ratios of light and heavy MS1 peaks for each unique peptide were quantified with a CIMAGE software using default parameters (3 MS1 acquisitions per peak and signal to noise threshold set to 2.5). For reactivity measurements by isoTOP-ABPP, the R value was calculated from the ratio of MS1 peak areas, comparing the 1 mM STP alkyne sample (light TEV tag) with the 0.1 mM STP alkyne sample (heavy TEV tag). For competitive isoTOP-ABPP, the R value was calculated from the ratio of MS1 peak areas, comparing the DMSO treated sample (heavy TEV tag) with the compound treated sample (light TEV tag). […] Ratios for unique peptide entries are calculated for each experiment; overlapping peptides with the same modified lysine (for example, different charge states, MudPIT chromatographic steps or tryptic termini) are grouped together and the median ratio is reported as the final ratio (R). The peptide ratios reported by CIMAGE were further filtered to ensure the removal or correction of low-quality ratios in each individual data set. The quality filters applied were the following: removal of half tryptic peptides; for ratios with high standard deviations from the median (90% of the median or above) the lowest ratio was taken instead of the median; removal of peptides with R=20 and only a single MS2 event triggered during the elution of the parent ion; manual annotation of all the peptides with ratios of 20, removing any peptides with low quality elution profiles that remained after the previous curation steps (only done for competitive isoTOP-ABPP).
(§4) Cross-data processing for fragment screening. For compound treated samples, biological replicates of the same condition were averaged, if the standard deviation was below 60% of the mean; otherwise, for lysines with at least one R value <4 for a particular compound, the lowest value of the ratio set was taken. For lysines, where all R values for a particular compound were ≥4, the average was reported. For peptides containing several possible modified lysines, the lysine with the highest number of quantification events was used for analysis and the remaining, redundant peptides were reported as alternative modification sites. Peptides included in the aggregate dataset (those used for further bioinformatics and statistical analyses) were required to have been quantified in 2 experiments for competitive isoTOP-ABPP. Lysines were categorized as liganded, if they had at least one ratio R≥4 (hit fragments). For liganded lysines with R=20 for all liganding events, lysines were required to have been quantified with R=20 in two separate experiments and were further required to have been quantified with R<20 in one additional experiment.

[2] = target: T2, HK1 Hexokinase-1 (Homo sapiens, UniProt P19367); experiment: competitive isoTOP-ABPP; format: binding; set-up: key to isoTOP-ABPP reactivity ratio at lysine P19367_K510: R = MS1 peak area ratio, DMSO (heavy) / compound-treated (light); conditions: for isoTOP-ABPP ratio (R) at liganded lysine P19367_K510: sol, 231
T2 construct: isoTOP-ABPP experiments performed in cell lysates (in vitro); endogenous in cells; host or cells: soluble proteome of human cancer cell lines (MDA-MB-231; Ramos and Jurkat also prepared)
T2 sequence (P19367 1-917): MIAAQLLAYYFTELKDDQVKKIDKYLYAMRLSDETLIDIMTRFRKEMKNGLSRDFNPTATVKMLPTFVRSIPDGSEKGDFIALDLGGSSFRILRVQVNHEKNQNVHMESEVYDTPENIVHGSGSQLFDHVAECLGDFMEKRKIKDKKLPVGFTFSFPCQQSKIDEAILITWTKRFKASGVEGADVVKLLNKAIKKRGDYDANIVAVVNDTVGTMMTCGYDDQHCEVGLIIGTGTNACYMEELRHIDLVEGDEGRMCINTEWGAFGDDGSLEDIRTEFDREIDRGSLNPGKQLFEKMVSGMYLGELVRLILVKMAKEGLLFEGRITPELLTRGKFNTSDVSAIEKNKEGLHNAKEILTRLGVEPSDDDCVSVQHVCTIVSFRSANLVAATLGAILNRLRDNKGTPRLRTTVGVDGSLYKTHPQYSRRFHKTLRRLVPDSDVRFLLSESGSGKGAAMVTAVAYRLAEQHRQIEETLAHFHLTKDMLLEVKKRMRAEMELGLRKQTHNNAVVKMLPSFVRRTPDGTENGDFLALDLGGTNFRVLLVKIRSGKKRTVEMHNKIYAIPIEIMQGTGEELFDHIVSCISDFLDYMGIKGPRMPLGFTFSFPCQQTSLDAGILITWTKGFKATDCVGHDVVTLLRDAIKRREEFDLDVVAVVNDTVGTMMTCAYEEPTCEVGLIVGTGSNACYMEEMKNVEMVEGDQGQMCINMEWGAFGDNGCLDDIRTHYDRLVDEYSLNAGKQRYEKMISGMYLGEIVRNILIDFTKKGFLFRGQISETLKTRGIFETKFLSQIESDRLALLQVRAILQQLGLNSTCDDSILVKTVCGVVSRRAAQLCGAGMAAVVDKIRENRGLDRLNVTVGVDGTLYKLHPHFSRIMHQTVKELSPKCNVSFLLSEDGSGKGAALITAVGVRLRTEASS
Experimental: as §1, §2, §3, §4

T1 sequence (O43399 whole entry): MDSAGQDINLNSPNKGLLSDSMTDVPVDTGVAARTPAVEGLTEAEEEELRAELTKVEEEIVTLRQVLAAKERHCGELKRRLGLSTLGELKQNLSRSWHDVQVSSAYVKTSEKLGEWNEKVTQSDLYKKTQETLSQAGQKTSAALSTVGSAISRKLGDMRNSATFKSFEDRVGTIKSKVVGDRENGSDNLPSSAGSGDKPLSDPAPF

isoTOP-ABPP reactivity ratio at lysine O43399_K90 ([1]; 50 uM, 231 sol, in vitro): 1.5
isoTOP-ABPP reactivity ratio at lysine P19367_K510 ([2]; 50 uM, 231 sol, in vitro): 1.2
Compound: O=C(Oc1c(F)c(F)c(F)c(F)c1F)c1ccc2ccccc2n1 [fragment 25, Pentafluorophenyl quinoline-2-carboxylate]

R value (DMSO/fragment) for probe 1 labeling ([1]; O43399_K90, 50 uM, 231 sol, in vitro): 1.5
R value (DMSO/fragment) for probe 1 labeling ([2]; P19367_K510, 50 uM, 231 sol, in vitro): 0.9
Compound: O=C(Oc1c(F)c(F)c(F)c(F)c1F)C(c1ccccc1)c1ccccc1 [fragment 20, Pentafluorophenyl 2,2-diphenylacetate]

Compound: O=C(Oc1ccc([N+](=O)[O-])cc1[N+](=O)[O-])c1cc(C(F)(F)F)cc(C(F)(F)F)c1 [fragment 31, 2,4-Dinitrophenyl 3,5-bis(trifluoromethyl)benzoate]
isoTOP-ABPP reactivity ratio at lysine O43399_K90 ([1]; 50 uM, 231 sol, in vitro): 3.3
isoTOP-ABPP reactivity ratio at lysine P19367_K510 ([2]; 50 uM, 231 sol, in vitro): 1.1

isoTOP-ABPP ratio, lysine O43399_K90 ([1]; 100 uM_231_sol_in vitro): 2.2
isoTOP-ABPP ratio, lysine P19367_K510 ([2]; 100 uM_231_sol_in vitro): 1.0
Compound: CC(C)(C)OC(=O)N=C(NC(=O)OC(C)(C)C)n1cccn1 [fragment 50, reference compound]

Compound: N#Cc1ccc(C(=O)Oc2ccc([N+](=O)[O-])cc2[N+](=O)[O-])cc1 [fragment 44, 2,4-Dinitrophenyl 4-cyanobenzoate]
isoTOP-ABPP ratio, lysine O43399_K90 ([1]; 50 uM_231_sol_in vitro): 1.1
isoTOP-ABPP ratio, lysine P19367_K510 ([2]; 50 uM_231_sol_in vitro): 1.2

Compound: O=C(Oc1ccc([N+](=O)[O-])cc1[N+](=O)[O-])C(c1ccccc1)c1ccccc1 [fragment 30, 2,4-Dinitrophenyl 2,2-diphenylacetate]
isoTOP-ABPP reactivity ratio at lysine O43399_K90 ([1]; 50 uM, 231 sol, in vitro): 5.5
isoTOP-ABPP reactivity ratio at lysine P19367_K510 ([2]; 50 uM, 231 sol, in vitro): 1.0

Compound: O=C(ON1C(=O)CCC1=O)c1cc(C(F)(F)F)cc(C(F)(F)F)c1 [fragment 46, 3,5-Bis(trifluoromethyl)benzoic acid NHS ester]
isoTOP-ABPP ratio, lysine O43399_K90 ([1]; 50 uM_231_sol_in vitro): 1.4
isoTOP-ABPP ratio, lysine P19367_K510 ([2]; 50 uM_231_sol_in vitro): 1.0

Compound: O=C(Oc1ccc([N+](=O)[O-])cc1[N+](=O)[O-])c1ccc(Oc2ccccc2)cc1 [fragment 39, 2,4-Dinitrophenyl 4-phenoxybenzoate]
isoTOP-ABPP ratio (R) at liganded lysine O43399_K90 ([1]; 50 uM, in vitro): 1.3
isoTOP-ABPP ratio (R) at liganded lysine P19367_K510 ([2]; 50 uM, in vitro): 0.9

Compound: O=C(Oc1ccc([N+](=O)[O-])cc1[N+](=O)[O-])c1ccc(-c2ccccc2)cc1 [fragment 37, 2,4-Dinitrophenyl [1,1′-biphenyl]-4-carboxylate]
isoTOP-ABPP ratio (R) at liganded lysine O43399_K90 ([1]; 50 uM, in vitro): 1.6
isoTOP-ABPP ratio (R) at liganded lysine P19367_K510 ([2]; 50 uM, in vitro): 0.9

Compound: COc1cc(CCC(=O)Oc2ccc([N+](=O)[O-])cc2[N+](=O)[O-])cc(OC)c1OC [fragment 33, 2,4-Dinitrophenyl 3-(3,4,5-trimethoxyphenyl)propanoate]
isoTOP-ABPP reactivity ratio at lysine O43399_K90 ([1]; 50 uM, 231 sol, in vitro): 1.3
isoTOP-ABPP reactivity ratio at lysine P19367_K510 ([2]; 50 uM, 231 sol, in vitro): 20.0

Compound: CC(=O)Oc1ccc([N+](=O)[O-])cc1[N+](=O)[O-] [fragment 43, 2,4-Dinitrophenyl acetate]
isoTOP-ABPP ratio (R) at liganded lysine O43399_K90 ([1]; 50 uM, in vitro): 1.1
isoTOP-ABPP ratio (R) at liganded lysine P19367_K510 ([2]; 50 uM, in vitro): 20.0

isoTOP-ABPP reactivity ratio at lysine O43399_K90 ([1]; 50 uM, 231 sol, in vitro): 1.1
isoTOP-ABPP reactivity ratio at lysine P19367_K510 ([2]; 50 uM, 231 sol, in vitro): 0.9
Compound: CCn1cc(C(=O)Oc2c(F)c(F)c(F)c(F)c2F)c(=O)c2ccc(C)nc21 [fragment 28, Pentafluorophenyl 1-ethyl-7-methyl-4-oxo-1,4-dihydro-1,8-naphthyridine-3-carboxylate]
